The values that follow come from patent publication US20120207734A1 (priority 2011, published 2012).

The subject of this assay is DU-145 cells. In kind it is cell-based, human.

`C=C1[C@@H](C)[C@H]2[C@H](Cc3ccccc3)NC(=O)[C@]23[C@H](OC(C)=O)/C=C/[C@@](C)(O)C(=O)[C@@H](C)C/C=C/[C@H]3[C@@H]1O` [Cytochalasin-D]: the “Effect on cell migration” value was “did not migrate”; the “Relative Wound Density at 24 Hours, Mean” value amounted to 3.3 ± 0.2; the “Relative Wound Density at 24 Hours, Percent Relative to Media” value is reported as 4%.
